Results: article PMC10518255, “A first-in-class pan-lysyl oxidase inhibitor impairs stromal remodeling and enhances gemcitabine response and survival in pancreatic cancer” (Nature Cancer, 2023)
Several values for one entry are separate records, joined by “and”; a condition that tells them apart may be missing. Identical values can stand only once.

Columns and labels:
[1] = tested on: Ki67; assay: Immunohistochemistry of end-point KPC tumors: proliferating cells; assay type: in vivo, mouse; settings: KPC tumors at end point
Method: (§1) All tissues or matrices, including patient TMAs, were fixed in 10% buffered formalin and embedded in paraffin. The 4-μm sections of samples were deparaffinized with xylene and rehydrated in graded ethanol washes. For immunohistochemistry, Bond Dewax Solution (AR9222) was used. Antigen retrieval was performed using Bond RX H2(30) protocol: HIER 30 min ER1 (citrate pH 6) OR ER2 (EDTA pH 9) at 100 °C. Slides were quenched in BOND Polymer Refine Detection (Leica Biosystems DS9800). […] Slides were digitized on an Aperio slide scanner and representative areas per tumor acquired and analyzed by researchers blinded to the conditions of the experiment.
Extended Data Fig. 6 PXS-5505 in combination with gemcitabine in a KPC model. a. Quantification of proliferating cells (Ki67 positive nuclear staining) in KPC tumors at end point, treated as indicated. 5 fields of view (500 μm × 500 μm) per mouse and 10 mice per cohort were scored. […] Quantification of percent coverage of αSMA positive staining in KPC tumors at end point, treated as indicated. 3 fields of view (1000 μm × 1000 μm) per mouse and 10 mice per cohort were scored. […] Quantification of percent coverage of PDGFR-ß positive staining in KPC tumors at end point, treated as indicated. 3 fields of view (1000 μm × 1000 μm) per mouse and 10 mice per cohort were scored. […] 3 fields of view (500 μm × 500 μm) per mouse and 10 mice per cohort were scored. […]

[2] = tested on: PDGFR-β; assay: Immunohistochemistry of end-point KPC tumors: panCAF marker; assay type: in vivo, mouse; settings: for Percent coverage of PDGFR-ß positive staining: Extended Data 6C, KPC tumours at endpoint, individual FOV
Method: as §1
Extended Data Fig. 6 PXS-5505 in combination with gemcitabine in a KPC model. a. Quantification of proliferating cells (Ki67 positive nuclear staining) in KPC tumors at end point, treated as indicated. 5 fields of view (500 μm × 500 μm) per mouse and 10 mice per cohort were scored. […] Quantification of percent coverage of αSMA positive staining in KPC tumors at end point, treated as indicated. 3 fields of view (1000 μm × 1000 μm) per mouse and 10 mice per cohort were scored. […] Quantification of percent coverage of PDGFR-ß positive staining in KPC tumors at end point, treated as indicated. 3 fields of view (1000 μm × 1000 μm) per mouse and 10 mice per cohort were scored. […] Quantification of pMLC2 positive staining in stromal regions of KPC tumors at end point, treated as indicated. 3 fields of view (500 μm × 500 μm) per mouse and 10 mice per cohort were scored. […] Quantification of tumor vasculature (CD31 positive staining) in KPC tumors at end point, treated as indicated. 3 fields of view (1000 μm × 1000 μm) per mouse and 10 mice per cohort were scored. […] Quantification of STAT3 activation (pSTAT3 positive nuclear staining) in KPC tumors at end point, treated as indicated. 3 fields of view (1000 μm × 1000 μm) per mouse and 5 mice per cohort were scored. […] Scale bars = 100 μm. g Quantification of macrophage infiltration (F4/80 positive staining) in KPC tumors at end point, treated as indicated. […]

[3] = target: T1, bovine aorta extracted LOX (Bos taurus, UniProt P33072); assay: Substrate competition assay versus putrescine dihydrochloride, amplex red (Extended Data Fig. 3b); assay type: biochemical
T1 construct: performed in an amplex red assay using bovine aorta extracted LOX; from tissue; host or cells: bovine aorta
T1 sequence (P33072 170-418): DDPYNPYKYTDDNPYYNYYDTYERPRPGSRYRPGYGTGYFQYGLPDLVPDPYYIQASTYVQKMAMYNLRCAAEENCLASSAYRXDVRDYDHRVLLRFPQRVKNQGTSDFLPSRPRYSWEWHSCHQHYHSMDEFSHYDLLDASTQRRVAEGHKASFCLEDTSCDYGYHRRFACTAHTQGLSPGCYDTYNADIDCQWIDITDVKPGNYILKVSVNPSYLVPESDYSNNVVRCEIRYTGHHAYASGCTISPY
From the text: Similar to other fluoroallylamine-based amine oxidase inhibitors, the mode of inhibition is assumed to be a two-step mechanism (Fig. 2c), with PXS-5505 reacting with the unique LTQ cofactor found within the active site. The fluoroallylamine facilitates the formation of a covalent, irreversible bond. […] Furthermore, in jump dilution experiments, there is no significant recovery of activity following rapid dilution (LOXL1 (5 ± 5% recovery, n = 4), LOXL2 (7 ± 1.2% recovery, n = 3) and LOXL3 (11 ± 2% recovery, n = 3)).
Data presented as mean values +/− SD. f. […] Data presented as mean values +/− SD. […] Data presented as mean values +/− SD. […] Data presented as mean values +/− SD. Ordinary one-way ANOVA for multiple comparison test performed. Source data

SMILES | Ki67 positive tumor cells [1] | Percent coverage of PDGFR-ß positive staining [2] | PDGFR-β positivity ([2]; KPC tumors at end point) | substrate competition [3]
Nc1ccn([C@@H]2O[C@H](CO)[C@@H](O)C2(F)F)c(=O)n1 [Gem, gemcitabine] | significantly decreasing the number of Ki67 positive tumor cells | 7.4938% and 2.1875% and 12.1122% and 4.282% and 6.095% and 3.1691% and 15.1145% and 8.8619% and 8.0756% and 17.8714% and 24.3073% and 20.1172% and 13.2929% and 10.304% and 12.3137% and 10.967% and 18.634% and 4.9424% and 8.9111% and 7.7908% and 2.017% and 14.5457% and 8.9344% and 10.6658% and 5.631% and 1.6247% and 8.4484% and 0.5673% and 1.2057% and 0.8465% | small decreases in positivity | 
Cl.Cl.NC/C=C(\F)CS(=O)(=O)c1cccc2cccnc12.O [PXS-5505, (Z)-3-fluoro-4-(quinolin-8-ylsulfonyl)but-2-en-1-amine dihydrochloride monohydrate] |  | 6.765% and 8.3993% and 2.8629% and 12.2376% and 9.6982% and 4.3212% and 4.8524% and 9.496% and 7.1445% and 8.9357% and 7.1025% and 17.1234% and 12.5648% and 3.0699% and 20.4926% and 2.5465% and 8.2725% and 3.1151% and 4.1221% and 5.7763% and 4.8975% and 4.1951% and 11.8569% and 14.757% and 1.2435% and 4.7314% and 2.3407% and 3.9912% and 1.8413% and 6.5811% |  | substrate competition
